Calls of active or inactive are those of the source. No cut-off for these calls is given here.
How the values were obtained:
RNA demethylase ALKBH5 [1] = target: T1, RNA demethylase ALKBH5 (Homo sapiens, UniProt Q6P6C2); experiment: Inhibition of ALKBH5 (66 to 292 residues) (unknown origin) extracted from Escherichia coli BL21 (DE3) cells using m6A ssDNA as substrate measured after 1 hrs by fluorescence polarization assay
Target sequence in this assay (Q6P6C2 whole entry, the tested form may be a part): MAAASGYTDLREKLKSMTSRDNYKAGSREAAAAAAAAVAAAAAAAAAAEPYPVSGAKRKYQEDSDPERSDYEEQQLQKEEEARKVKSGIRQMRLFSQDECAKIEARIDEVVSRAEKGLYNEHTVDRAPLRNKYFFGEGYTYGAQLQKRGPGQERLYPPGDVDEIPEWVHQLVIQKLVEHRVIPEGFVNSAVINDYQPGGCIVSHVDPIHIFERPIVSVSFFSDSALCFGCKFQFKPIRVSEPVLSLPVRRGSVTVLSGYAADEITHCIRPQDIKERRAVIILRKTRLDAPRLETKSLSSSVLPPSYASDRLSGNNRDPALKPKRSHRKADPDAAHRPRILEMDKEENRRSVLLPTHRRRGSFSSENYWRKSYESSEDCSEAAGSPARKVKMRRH

RNA demethylase ALKBH5 [2] = target: T1, RNA demethylase ALKBH5; experiment: Inhibition of ALKBH5 (66 to 292 residues) (unknown origin) extracted from Escherichia coli BL21 (DE3) cells using m6A ssDNA as substrate measured after 2 hrs by fluorescence polarization assay
Target sequence in this assay (Q6P6C2 whole entry, the tested form may be a part): as above

RNA demethylase ALKBH5 [3] = target: T1, RNA demethylase ALKBH5; experiment: Binding affinity to ALKBH5 (66 to 292 residues) (unknown origin) extracted from Escherichia coli BL21 (DE3) cells assessed as dissociation constant by ITC analysis
Target sequence in this assay (Q6P6C2 whole entry, the tested form may be a part): as above

RNA demethylase ALKBH5 [4] = target: T1, RNA demethylase ALKBH5; experiment: Inhibition of ALKBH5 (66 to 292 residues) (unknown origin) demethylase activity extracted from Escherichia coli BL21 (DE3) cells at 200 uM preincubated for 3 hrs and measured after compound washout by small molecule dilution method
Target sequence in this assay (Q6P6C2 2-394 limits assumed): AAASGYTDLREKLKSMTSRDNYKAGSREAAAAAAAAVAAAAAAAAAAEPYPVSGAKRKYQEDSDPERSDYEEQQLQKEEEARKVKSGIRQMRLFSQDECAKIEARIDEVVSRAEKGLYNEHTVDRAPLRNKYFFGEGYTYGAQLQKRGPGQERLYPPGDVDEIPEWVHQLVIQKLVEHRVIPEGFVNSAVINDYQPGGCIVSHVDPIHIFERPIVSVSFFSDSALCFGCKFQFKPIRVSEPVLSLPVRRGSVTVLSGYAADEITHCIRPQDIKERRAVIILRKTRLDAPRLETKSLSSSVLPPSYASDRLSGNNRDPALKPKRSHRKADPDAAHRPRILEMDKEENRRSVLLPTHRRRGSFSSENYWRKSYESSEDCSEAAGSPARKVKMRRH

RNA demethylase ALKBH5 [5] = target: T1, RNA demethylase ALKBH5; experiment: Covalent binding affinity to ALKBH5 (66 to 292 residues) (unknown origin) extracted from Escherichia coli BL21 (DE3) cells at Lys132 residue by HPLC-MS/MS analysis
Target sequence in this assay (Q6P6C2 2-394 limits assumed): as above

RNA demethylase ALKBH5 [6] = target: T1, RNA demethylase ALKBH5; experiment: Induction of thermal stabilization of wild type ALKBH5 (66 to 292 residues) (unknown origin) extracted from Escherichia coli BL21 (DE3) cells assessed as melting temperature by thermal shift assay (reference value: 47.30 degreeC)
Target sequence in this assay (Q6P6C2 2-394 limits assumed): as above

[7] = test system: RNA demethylase ALKBH5 (Homo sapiens), Q6P6C2 [K132E]; experiment: Induction of thermal stabilization of ALKBH5 K132E mutant (66 to 292 residues) (unknown origin) extracted from Escherichia coli BL21 (DE3) cells assessed as melting temperature by thermal shift assay (reference value: 47.05 degreeC)
RNA demethylase ALKBH5 [8] = target: T1, RNA demethylase ALKBH5; experiment: Inhibition of ALKBH5 (66 to 292 residues) (unknown origin) extracted from Escherichia coli BL21 (DE3) cells using m6A ssDNA as substrate measured after 40 mins by fluorescence polarization assay
Target sequence in this assay (Q6P6C2 whole entry, the tested form may be a part): as the sequence (Q6P6C2 whole entry, the tested form may be a part) above

RNA demethylase ALKBH5 [9] = target: T1, RNA demethylase ALKBH5; experiment: Inhibition of ALKBH5 (66 to 292 residues) (unknown origin) extracted from Escherichia coli BL21 (DE3) cells using m6A ssDNA as substrate measured after 180 mins by fluorescence polarization assay
Target sequence in this assay (Q6P6C2 whole entry, the tested form may be a part): as above

RNA demethylase ALKBH5 [10] = target: T1, RNA demethylase ALKBH5; experiment: Binding affinity to ALKBH5 (66 to 292 residues) (unknown origin) extracted from Escherichia coli BL21 (DE3) cells assessed as dissociation constant incubated for 1 hrs by MST analysis
Target sequence in this assay (Q6P6C2 whole entry, the tested form may be a part): as above

RNA demethylase ALKBH5 [11] = target: T1, RNA demethylase ALKBH5; experiment: Binding affinity to ALKBH5 (66 to 292 residues) (unknown origin) extracted from Escherichia coli BL21 (DE3) cells assessed as dissociation constant incubated for 3 hrs by MST analysis
RNA demethylase ALKBH5 [12] = target: T1, RNA demethylase ALKBH5; experiment: Time-dependent inhibition of ALKBH5 (66 to 292 residues) (unknown origin) demethylation activity extracted from Escherichia coli BL21 (DE3) cells using m6A ssDNA as substrate at 1 to 10 uM by TBE-PAGE based restriction enzyme digestion assay; details: dose 1-10 µM, time 0.5-2 hrs
Target sequence in this assay (Q6P6C2 2-394 limits assumed): as the sequence (Q6P6C2 2-394 limits assumed) above

RNA demethylase ALKBH5 [13] = target: T1, RNA demethylase ALKBH5; experiment: Inhibition of ALKBH5 (66 to 292 residues) (unknown origin) extracted from Escherichia coli BL21 (DE3) cells using m6A ssDNA as substrate assessed as Kinact/Ki ratio measured after 6 hrs by fluorescence polarization assay
Target sequence in this assay (Q6P6C2 2-394 limits assumed): as above

RNA demethylase ALKBH5 [14] = target: T1, RNA demethylase ALKBH5; experiment: Binding affinity to ALKBH5 (66 to 292 residues) (unknown origin) extracted from Escherichia coli BL21 (DE3) cells at 1:1 protein:compound ratio by mass spectrometry analysis
Target sequence in this assay (Q6P6C2 2-394 limits assumed): as above

[15] = target: T2, Alpha-ketoglutarate-dependent dioxygenase alkB homolog 3 (Homo sapiens, UniProt Q96Q83); experiment: Inhibition of ALKBH3 (unknown origin) by fluorescence polarization assay
T2 sequence (Q96Q83 whole entry): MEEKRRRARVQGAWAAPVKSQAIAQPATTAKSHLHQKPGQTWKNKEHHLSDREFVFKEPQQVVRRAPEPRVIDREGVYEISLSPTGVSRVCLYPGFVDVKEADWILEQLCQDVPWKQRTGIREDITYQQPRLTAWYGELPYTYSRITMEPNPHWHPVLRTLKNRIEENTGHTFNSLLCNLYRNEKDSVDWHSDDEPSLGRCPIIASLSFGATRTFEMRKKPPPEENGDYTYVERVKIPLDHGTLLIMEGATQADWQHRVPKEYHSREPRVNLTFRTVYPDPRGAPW

[16] = Selectivity ratio of IC50 for FTO (32 to 505 residues) (unknown origin) extracted from Escherichia coli BL21 (DE3) cells to IC50 for ALKBH5 (66 to 292 residues) (unknown origin) extracted from Escherichia coli BL21 (DE3) cells by fluorescence polarization assay
[17] = target: T3, Alpha-ketoglutarate-dependent dioxygenase alkB homolog 3 (Homo sapiens) (UniProt Q96Q83); experiment: Induction of thermal stabilization of ALKBH3 (unknown origin) assessed as change in melting temperature by thermal shift assay
T3 sequence (whole entry): T2 sequence (Q96Q83 whole entry)

RNA demethylase ALKBH5 [18] = target: T1, RNA demethylase ALKBH5; experiment: Inhibition of ALKBH5 (66 to 292 residues) (unknown origin) extracted from Escherichia coli BL21 (DE3) cells using m6A ssDNA as substrate at 1.25 to 10 uM incubated for 2 hrs in presence of 2-OG by TBE-PAGE based restriction enzyme digestion assay; details: dose 1.25-10 µM
RNA demethylase ALKBH5 [19] = target: T1, RNA demethylase ALKBH5; experiment: Inhibition of ALKBH5 in human MV4-11 cells assessed as increase in m6A methylation levels by dot blot assay; assay type: cell-based
RNA demethylase ALKBH5 [20] = target: T1, RNA demethylase ALKBH5; experiment: Inhibition of ALKBH5 in human MV4-11 cells assessed as increase in m6A methylation levels by m6A RNA Methylation Quantification Kit based colorimetric analysis; assay type: cell-based; details: dose 10-80 µM
MOLM-13 [21] = experiment: Downregulation of AXL mRNA expression levels in human MOLM-13 cells at 10 to 80 uM incubated for 72 hrs by qRT-PCR analysis; assay type: functional, cell-based; details: dose 10-80 µM
MOLM-13 [22] = experiment: Induction of cell cycle arrest in human MOLM-13 cells assessed as accumulation of cells at G2/M phase at 40 uM incubated for 72 hrs by flow cytometry analysis (reference value: 17.53 %); assay type: functional
MOLM-13 [23] = experiment: Induction of apoptosis in human MOLM-13 cells assessed as late apoptotic cells at 40 uM incubated for 72 hrs by Annexin V FITC/PI staining based flow cytometry analysis (reference value: 4.28 %); assay type: functional
MOLM-13 [24] = experiment: Induction of apoptosis in human MOLM-13 cells assessed as necrotic cells at 40 uM incubated for 72 hrs by Annexin V FITC/PI staining based flow cytometry analysis (reference value: 1.75 %); assay type: functional
MOLM-13 [25] = experiment: Induction of apoptosis in human MOLM-13 cells assessed as necrotic cells at 80 uM incubated for 72 hrs by Annexin V FITC/PI staining based flow cytometry analysis (reference value: 1.75 %); assay type: functional
RNA demethylase ALKBH5 [26] = target: T1, RNA demethylase ALKBH5; experiment: Potency index, ratio of 2-(((2-nitrophenyl)sulfonyl)carbamoyl)isonicotinic acid IC50 to test compound IC50 for inhibition of ALKBH5 (66 to 292 residues) (unknown origin) extracted from Escherichia coli BL21 (DE3) cells using m6A ssDNA as substrate measured after 1 hrs by fluorescence polarization assay
[27] = test system: RNA demethylase ALKBH5 (Homo sapiens), Q6P6C2 [K132E]; experiment: Induction of thermal stabilization of ALKBH5 K132E mutant (66 to 292 residues) (unknown origin) extracted from Escherichia coli BL21 (DE3) cells assessed as change in melting temperature by thermal shift assay

Sequence of RNA demethylase ALKBH5 (Homo sapiens), Q6P6C2 [K132E] (Q6P6C2 whole entry K132E, the tested form may be a part): as the sequence (Q6P6C2 whole entry, the tested form may be a part) above, with K132E counted along it

## O=Cc1cc(S(=O)(=O)NC(=O)c2cc(C(=O)O)ccn2)c2ccccc2c1O
RNA demethylase ALKBH5 [1]
  IC50: 480 nM
RNA demethylase ALKBH5 [2]
  IC50: 350 nM
RNA demethylase ALKBH5 [3]
  Kd: 2800 nM
RNA demethylase ALKBH5 [4]
  inhibition: Active
RNA demethylase ALKBH5 [5]
  Activity: Active
RNA demethylase ALKBH5 [6]
  Tm: 49.9 °C
[7]
  Tm: 46.1 °C
RNA demethylase ALKBH5 [8]
  IC50: 580 nM
RNA demethylase ALKBH5 [9]
  IC50: 280 nM
RNA demethylase ALKBH5 [10]
  Kd: 2630 nM
RNA demethylase ALKBH5 [11]
  Kd: 1030 nM
RNA demethylase ALKBH5 [12]
  TDI: Active
RNA demethylase ALKBH5 [13]
  Ratio: 0.03 µM⁻¹ min⁻¹
RNA demethylase ALKBH5 [14]
  Activity: Active; Mass Peak Of 28,181.6 Da Observed
[15]
  IC50: 11700 nM
[16]
  Ratio IC50: 20
[17]
  ΔTm: < 1 °C
RNA demethylase ALKBH5 [18]
  inhibition: Active
RNA demethylase ALKBH5 [19]
  inhibition: Active
RNA demethylase ALKBH5 [20]
  inhibition: Dose-dependent-effect
MOLM-13 [21]
  Activity: Active
MOLM-13 [22]
  Activity: 26.1%
MOLM-13 [23]
  Activity: 4.62%
MOLM-13 [24]
  Activity: 2.03%
MOLM-13 [25]
  Activity: 1.2%
RNA demethylase ALKBH5 [26]
  Ratio IC50: 287
[27]
  ΔTm: < 1 °C
